# Assay results: US20230382904A1, “SUBSTITUTED 4-([1,2,4]TRIAZOLO[1,5-a]PYRIDIN-6-YL)THIOPHENE-2-CARBOXAMIDE DERIVATIVES AND USE THEREOF” (The Johns Hopkins University, priority 2020, published 2023)
# What was measured:
# LZK = LZK (Homo sapiens (Human), UniProt O43283); test: LZK biochemical assay (TR-FRET, MKK7 phosphorylation)
# Experimental: LZK assay is a biochemical assay format designed to screen for inhibitors of LZK. Enzymatic activity of LZK was measured by monitoring phosphorylation of the physiological substrate MKK7 (MAP2K7, Dual specificity mitogen-activated protein kinase kinase 7). Phosphorylation was detected by a TR-FRET system whereby His-tagged MKK7 was labeled by a XL665-labeled anti-His antibody (FRET acceptor, emission 665 nm). LZK phosphorylates MKK7 at T275/S277 which were detected by an Eu-labeled anti-phospho-MKK7 (T275/S277) antibody (FRET donor, excitation 340 nm). Phosphorylation of MKK7 results in an increased TR-FRET signal (Ratio XL665-channel/Eu-channel) and inhibition of enzymatic activity of LZK decreases the TR-FRET signal.
# Assay Protocol for 384 low volume MTP format: 1 μl of test compound was pipetted into test plate; +5 μl LZK solution (10 nM LZK, catalytic domain, Carna Biosiences in assay buffer); +5 μl substrate solution (15 nM MKK7, LDB; 15 μM ATP, in assay buffer); 90 min incubation at RT; +5 μl detection mix (20 nM XL665-labeled anti-His antibody, Cisbio; 0.4 nM Eu-labeled anti-phospho-MKK7 (T275/S277), Cisbio/Millipore in detection buffer), 16 h incubation at 32° C.; endpoint measurement BMG (HTRF).
# (§1) All indicated concentrations final concentrations.
# Assay buffer (384 format): 50 mM Hepes pH 7.5, 10 mM MgCl2, 1 mM EGTA, 1 mM DTT, 0.01% Triton X-100, 0.01% BSA, 1:500 Smart Block.
# (§2) Detection buffer: 25 mM Tris/HCl pH 7.5, 100 mM EDTA, 100 mM NaCl, 200 mM KF, 0.01% Tween 20, 1:500 Smart Block.
# DLK = DLK (Homo sapiens (Human), UniProt Q12852); test: DLK biochemical assay (TR-FRET, MKK7 phosphorylation)
# Experimental: DLK assay is a biochemical assay format designed to screen for inhibitors of DLK. Enzymatic activity of DLK was measured by monitoring phosphorylation of the physiological substrate MKK7 (MAP2K7, Dual specificity mitogen-activated protein kinase kinase 7). Phosphorylation was detected by a TR-FRET system whereby His-tagged MKK7 was labeled by a XL665-labeled anti-His antibody (FRET acceptor, emission 665 nm). DLK phosphorylates MKK7 at T275/S277, which was detected by an Eu-labeled anti-phospho-MKK7 (T275/S277) antibody (F RET donor, excitation 340 nm). Phosphorylation of MKK7 results in an increased TR-FRET signal (Ratio XL665-channel/Eu-channel) and inhibition of enzymatic activity of DLK decreases the TR-FRET signal.
# Assay Protocol for 1536 MTP format: test compounds were predispensed (60 nl) in test plates; +3 μl DLK solution (10 nM DLK, catalytic domain, Carna Biosiences, 0.6 mM DTT in assay buffer); +2 μl substrate solution (15 nM MKK7, LDB; 60 μM ATP; 0.4 mM DTT in assay buffer); 90 min incubation at RT; +2 μl detection mix (5 nM XL665-labeled anti-His antibody, Cisbio; 0.1 nM Eu-labeled anti-phospho-MKK7 (T275/S277), Cisbio/Millipore in detection buffer); 16 h incubation at 37° C.; endpoint measurement BMG (HTRF).
# Assay Protocol for 384 low volume MTP format: 1 μl of test compounds were pipetted into test plate; +5 μl DLK solution (10 nM DLK, catalytic domain, Carna Biosiences in assay buffer); +5 μl substrate solution (15 nM MKK7, LDB; 60 μM ATP, in assay buffer); 90 min incubation at RT; +9 μl detection mix (20 nM XL665-labeled anti-His antibody, Cisbio; 0.4 nM Eu-labeled anti-phospho-MKK7 (T275/S277), Cisbio/Millipore in detection buffer); 16 h incubation at 4° C.; endpoint measurement BMG (HTRF).
# as §1
# Assay buffer (384 format): 50 mM Hepes pH 7.5, 10 mM MgCl2, 1 mM EGTA, 1 mM DTT, 0,01% Triton X-100, 0.01% BSA, 1:500 Smart Block.
# as §2
# Chain of DLK (Q12852 1-520): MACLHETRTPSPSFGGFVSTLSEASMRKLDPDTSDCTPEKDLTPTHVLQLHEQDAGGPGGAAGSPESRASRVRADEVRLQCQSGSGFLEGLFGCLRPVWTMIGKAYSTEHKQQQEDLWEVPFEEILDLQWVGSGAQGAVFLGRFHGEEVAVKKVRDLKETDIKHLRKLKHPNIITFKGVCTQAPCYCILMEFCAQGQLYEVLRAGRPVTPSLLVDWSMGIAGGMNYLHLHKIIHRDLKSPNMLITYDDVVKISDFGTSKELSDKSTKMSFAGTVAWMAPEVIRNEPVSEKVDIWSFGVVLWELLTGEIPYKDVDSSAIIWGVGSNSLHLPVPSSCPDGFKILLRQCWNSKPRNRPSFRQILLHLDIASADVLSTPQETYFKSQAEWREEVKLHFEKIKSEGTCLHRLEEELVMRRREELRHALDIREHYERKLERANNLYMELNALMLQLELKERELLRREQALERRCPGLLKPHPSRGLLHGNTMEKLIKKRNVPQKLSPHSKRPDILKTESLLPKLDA
# Chain of LZK (O43283 168-409): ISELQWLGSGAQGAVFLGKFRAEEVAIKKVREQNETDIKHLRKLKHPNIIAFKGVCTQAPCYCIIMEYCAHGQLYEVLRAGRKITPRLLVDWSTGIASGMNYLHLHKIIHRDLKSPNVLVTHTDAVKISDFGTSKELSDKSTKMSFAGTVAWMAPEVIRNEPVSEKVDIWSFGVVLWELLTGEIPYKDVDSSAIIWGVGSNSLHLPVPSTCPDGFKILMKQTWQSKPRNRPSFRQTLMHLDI
Structure (SMILES),IC50 (LZK),IC50 (DLK)
Nc1nc2c(C(=O)NCC(F)(F)F)cc(-c3csc(C(=O)NCc4ccccc4)c3)cn2n1 [Compound 53],6100 nM,280 nM
Nc1nc2c(C(=O)NC3CC3)cc(-c3csc(C(=O)NCc4ccccc4)c3)cn2n1 [Compound 56],2300 nM,120 nM
Nc1nc2c(C(=O)NC3CCC3)cc(-c3csc(C(=O)NCc4ccc(F)cc4)c3)cn2n1 [Compound 58],330 nM,29.5 nM
C[C@H](NC(=O)c1cc(-c2cc(C(=O)NC3CCC3)c3nc(N)nn3c2)cs1)c1ccc(F)cc1 [Compound 60],295 nM,5.25 nM
Nc1nc2c(C(=O)NCC(F)(F)F)cc(-c3csc(C(=O)NCc4ccc(F)cc4)c3)cn2n1 [Compound 61],3700 nM,570 nM
C[C@H](NC(=O)c1cc(-c2cc(C(=O)NCC(F)(F)F)c3nc(N)nn3c2)cs1)c1ccccc1 [Compound 62],10000 nM,120 nM
C[C@H](NC(=O)c1cc(-c2cc(C(=O)NCC(F)(F)F)c3nc(N)nn3c2)cs1)c1ccc(F)cc1 [Compound 63],4600 nM,120 nM
Nc1nc2c(C(=O)NC3COC3)cc(-c3csc(C(=O)NCc4ccccc4)c3)cn2n1 [Compound 64],7000 nM,200 nM
C[C@H](NC(=O)c1cc(-c2cc(C(=O)NC3COC3)c3nc(N)nn3c2)cs1)c1ccccc1 [Compound 65],19000 nM,100 nM
COC[C@H](C)NC(=O)c1cc(-c2csc(C(=O)NCc3ccccc3)c2)cn2nc(N)nc12 [Compound 67],1700 nM,200 nM
COC[C@H](C)NC(=O)c1cc(-c2csc(C(=O)NCc3ccc(F)cc3)c2)cn2nc(N)nc12 [Compound 68],1600 nM,300 nM
COC[C@H](C)NC(=O)c1cc(-c2csc(C(=O)N[C@@H](C)c3ccc(F)cc3)c2)cn2nc(N)nc12 [Compound 69],1100 nM,60 nM
COC[C@H](C)NC(=O)c1cc(-c2csc(C(=O)N[C@@H](C)c3ccccc3)c2)cn2nc(N)nc12 [Compound 70],1400 nM,76 nM
Nc1nc2c(C(=O)NC3COC3)cc(-c3csc(C(=O)NCc4ccc(F)cc4)c3)cn2n1 [Compound 74],5600 nM,320 nM
CC[C@H](NC(=O)c1cc(-c2cc(C(=O)NC3COC3)c3nc(N)nn3c2)cs1)c1ccccc1 [Compound 75],4200 nM,67 nM
CCNC(=O)c1cc(-c2csc(C(=O)N[C@@H](CC)c3ccccc3)c2)cn2nc(N)nc12 [Compound 82],455 nM,12.5 nM
CC(C)NC(=O)c1cc(-c2csc(C(=O)N[C@@H](C)c3ccc(C(F)(F)F)cc3)c2)cn2nc(N)nc12 [Compound 83],4200 nM,73 nM
CC[C@H](NC(=O)c1cc(-c2cc(C(=O)NC(C)(C)C)c3nc(N)nn3c2)cs1)c1ccccc1 [Compound 84],340 nM,19 nM
CC(C)NC(=O)c1cc(-c2csc(C(N)=O)c2)cn2nc(N)nc12 [Compound 85],900 nM,360 nM
C[C@@H](CO)NC(=O)c1cc(-c2csc(C(N)=O)c2)cn2nc(N)nc12 [Compound 86],1100 nM,360 nM
Cc1ccc([C@H](C)NC(=O)c2cc(-c3cc(C(=O)NC(C)C)c4nc(N)nn4c3)cs2)cc1 [Compound 90],490 nM,21 nM
C[C@H](NC(=O)c1cc(-c2cc(C(=O)NC3CCC3)c3nc(N)nn3c2)cs1)c1ccc(C(F)(F)F)cc1 [Compound 92],2000 nM,55 nM
CC(C)NC(=O)c1cc(-c2csc(C(=O)N(C)[C@@H](C)c3ccc(F)cc3)c2)cn2nc(N)nc12 [Compound 99],2400 nM,330 nM
C[C@H](NC(=O)c1cc(-c2cc(C(=O)N[C@H]3CCOC3)c3nc(N)nn3c2)cs1)c1ccc(C(F)(F)F)cc1 [Compound 105],550 nM,20 nM

# Stronger by IC50 (LZK), values ahead:
IC50 (LZK),IC50 (DLK),Structure (SMILES)
235 nM,20.5 nM,Nc1nc2c(C(=O)NC3CCC3)cc(-c3csc(C(=O)NCc4ccccc4)c3)cn2n1 [Compound 52]
255 nM,4.35 nM,C[C@H](NC(=O)c1cc(-c2cc(C(=O)NC3CCC3)c3nc(N)nn3c2)cs1)c1ccccc1 [Compound 59]
87 nM,5.15 nM,CC[C@H](NC(=O)c1cc(-c2cc(C(=O)NC(C)C)c3nc(N)nn3c2)cs1)c1ccccc1 [Compound 76]
36 nM,1.8 nM,CC[C@H](NC(=O)c1cc(-c2cc(C(=O)N[C@@H](C)CO)c3nc(N)nn3c2)cs1)c1ccccc1 [Compound 77]
210 nM,11.5 nM,C[C@H](NC(=O)c1cc(-c2cc(C(=O)NC(C)(C)CO)c3nc(N)nn3c2)cs1)c1ccccc1 [Compound 79]
130 nM,56.5 nM,CC(C)(CO)NC(=O)c1cc(-c2csc(C(=O)NCc3ccc(F)cc3)c2)cn2nc(N)nc12 [Compound 80]
140 nM,10 nM,CC[C@H](NC(=O)c1cc(-c2cc(C(=O)N[C@@H](C)COC)c3nc(N)nn3c2)cs1)c1ccccc1 [Compound 81]
48 nM,11 nM,CC[C@H](C)NC(=O)c1cc(-c2csc(C(=O)NCc3ccccc3)c2)cn2nc(N)nc12 [Compound 87]
37 nM,3.2 nM,CC[C@H](C)NC(=O)c1cc(-c2csc(C(=O)N[C@@H](C)c3ccccc3)c2)cn2nc(N)nc12 [Compound 88]
51 nM,3.7 nM,CC[C@H](NC(=O)c1cc(-c2cc(C(=O)N[C@@H](C)CC)c3nc(N)nn3c2)cs1)c1ccccc1 [Compound 89]
41 nM,11 nM,CC[C@H](C)NC(=O)c1cc(-c2csc(C(=O)NCc3ccc(F)cc3)c2)cn2nc(N)nc12 [Compound 93]
34 nM,4.75 nM,"CC[C@H](C)NC(=O)c1cc(-c2csc(C(=O)N[C@@H](C)c3ccc(F)cc3)c2)cn2nc(N)nc12 [Compound 94, 2-Amino-N-[(2S)-butan-2-yl]-6-(5-{[(1S)-1-(4-fluorophenyl)ethyl]carbamoyl}thiophen-3-yl)[1,2,4]triazolo[1,5-a]pyridine-8-carboxamide]"
130 nM,14 nM,CC(C)NC(=O)c1cc(-c2csc(C(=O)N[C@@H](C)c3nc4ccccc4o3)c2)cn2nc(N)nc12 [Compound 95]
140 nM,16 nM,CC(C)NC(=O)c1cc(-c2csc(C(=O)N[C@H](C)c3ccccc3)c2)cn2nc(N)nc12 [Compound 97]
60 nM,7.5 nM,C[C@H](NC(=O)c1cc(-c2cc(C(=O)N[C@H]3CCOC3)c3nc(N)nn3c2)cs1)c1ccc(F)cc1 [Compound 98]
200 nM,5.8 nM,C[C@H](NC(=O)c1cc(-c2cc(C(=O)N[C@@H](C)CO)c3nc(N)nn3c2)cs1)c1nc2ccccc2o1 [Compound 100]
71 nM,4.3 nM,C[C@H](NC(=O)c1cc(-c2cc(C(=O)N[C@H]3CCOC3)c3nc(N)nn3c2)cs1)c1ccccc1 [Compound 102]
160 nM,25 nM,Nc1nc2c(C(=O)N[C@H]3CCOC3)cc(-c3csc(C(=O)NCc4ccccc4)c3)cn2n1 [Compound 103]
30.5 nM,1.7 nM,CC[C@H](NC(=O)c1cc(-c2cc(C(=O)N[C@@H]3CCOC3)c3nc(N)nn3c2)cs1)c1ccccc1 [Compound 104]
